# Results as given in patent publication US11414416B1, “Compounds and uses thereof” (Foghorn Therapeutics Inc., priority 2019, dated 2022).
# Target: Nanoluciferase-BRD9 fusion protein (Homo sapiens (Human), UniProt Q9H8M2)
# Experiment: SYO1 BRD9 NanoLuc degradation assay
# Format: cell-based
# Conditions: Table 5B; SYO-1 cells expressing 3×FLAG-NLuc-BRD9, 6 hours; read-out: SYO1 BRD9-NanoLuc degradation IC50
# How it was run: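 Degradation was read as loss of nanoluciferase signal (Nano-Glo) after 6 h compound exposure in a stable SYO-1 line carrying 3×FLAG-NLuc-BRD9 (8000 cells/well). Normalised between DMSO (high) and a 1 μM known BRD9 degrader (low).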
# Chain of Nanoluciferase-BRD9 fusion protein (Q9H8M2 whole entry, the tested form may be a part): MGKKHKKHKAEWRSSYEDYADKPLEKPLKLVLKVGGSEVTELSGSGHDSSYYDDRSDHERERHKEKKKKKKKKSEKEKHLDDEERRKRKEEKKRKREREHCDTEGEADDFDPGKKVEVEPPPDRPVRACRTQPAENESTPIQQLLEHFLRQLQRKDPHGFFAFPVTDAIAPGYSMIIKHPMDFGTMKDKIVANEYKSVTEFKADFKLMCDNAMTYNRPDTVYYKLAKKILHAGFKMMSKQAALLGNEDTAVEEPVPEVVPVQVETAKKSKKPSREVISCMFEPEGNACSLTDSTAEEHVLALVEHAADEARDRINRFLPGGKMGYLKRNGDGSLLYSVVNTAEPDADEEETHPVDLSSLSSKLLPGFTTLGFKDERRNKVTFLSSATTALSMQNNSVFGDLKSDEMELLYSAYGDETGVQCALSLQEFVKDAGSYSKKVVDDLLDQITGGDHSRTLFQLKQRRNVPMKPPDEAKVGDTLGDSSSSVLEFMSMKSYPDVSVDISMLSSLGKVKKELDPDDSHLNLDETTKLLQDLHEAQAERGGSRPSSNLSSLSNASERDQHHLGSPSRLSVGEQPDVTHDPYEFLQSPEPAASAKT
row,DC50,SMILES
1,< 10 nM,COc1cc(-c2cn(C)c(=O)c3cnccc23)cc(OC)c1CN1CCC2(CC1)CCN(C(=O)CC#Cc1ccc3c(c1)C(=O)N(C1CCC(=O)NC1=O)C3=O)C2 (centres unmarked) [Compound D313]
2,10 to 100 nM,COc1cc(-c2cn(C)c(=O)c3cnccc23)cc(OC)c1CN1CCC2(C1)CN(C(=O)CC#Cc1ccc3c(c1)C(=O)N(C1CCC(=O)NC1=O)C3=O)C2 (centres unmarked) [Compound D314]
3,< 10 nM,COc1cc(-c2cn(C)c(=O)c3cnccc23)cc(OC)c1CN1CCC2C(C1)CN2C(=O)CC#Cc1ccc2c(c1)C(=O)N(C1CCC(=O)NC1=O)C2=O (centres unmarked) [Compound D315]
4,< 10 nM,COc1cc(-c2cn(C)c(=O)c3cnccc23)cc(OC)c1CN1CCN(C(=O)CC#Cc2ccc3c(c2)C(=O)N(C2CCC(=O)NC2=O)C3=O)CC1 (centres unmarked) [Compound D316]
5,10 to 100 nM,COc1cc(-c2cn(C)c(=O)c3cnccc23)cc(OC)c1CN1CC2(C1)CN(C(=O)CC#Cc1ccc3c(c1)C(=O)N(C1CCC(=O)NC1=O)C3=O)C2 (centres unmarked) [Compound D317]
6,< 10 nM,COc1cc(-c2cn(C)c(=O)c3cnccc23)cc(OC)c1CN1CCC2(CC1)CN(C(=O)CC#Cc1ccc3c(c1)C(=O)N(C1CCC(=O)NC1=O)C3=O)C2 (centres unmarked) [Compound D318]
7,< 10 nM,COc1cc(-c2cn(C)c(=O)c3cnccc23)cc(OC)c1CN1CCC(n2cc([C@@H](C)Oc3ccc4c(c3)C(=O)N(C3CCC(=O)NC3=O)C4=O)nn2)CC1 (some centres unmarked) [Compound D319]
8,< 10 nM,COc1cc(-c2cn(C)c(=O)c3cnccc23)cc(OC)c1CN1CCC(n2cc([C@H](C)Oc3ccc4c(c3)C(=O)N(C3CCC(=O)NC3=O)C4=O)nn2)CC1 (some centres unmarked) [Compound D320]
9,< 10 nM,COc1cc(-c2cn(C)c(=O)c3cnccc23)cc(OC)c1CN1CCC(c2nc(COc3ccc4c(c3)C(=O)N(C3CCC(=O)NC3=O)C4=O)cs2)CC1 (centres unmarked) [Compound D321]
10,< 10 nM,COc1cc(-c2cn(C)c(=O)c3cnccc23)cc(OC)c1CN1CCC(c2cc(COc3ccc4c(c3)C(=O)N(C3CCC(=O)NC3=O)C4=O)on2)CC1 (centres unmarked) [Compound D322]
11,< 10 nM,COc1cc(-c2cn(C)c(=O)c3cnccc23)cc(OC)c1CN1CCC(n2ccc(COc3ccc4c(c3)C(=O)N(C3CCC(=O)NC3=O)C4=O)n2)CC1 (centres unmarked) [Compound D323]
12,< 10 nM,COc1cc(-c2cn(C)c(=O)c3cnccc23)cc(OC)c1CN1CCC(n2cc(COc3ccc4c(c3)C(=O)N(C3CCC(=O)NC3=O)C4=O)cn2)CC1 (centres unmarked) [Compound D324]
13,< 10 nM,COc1cc(-c2cn(C)c(=O)c3cnccc23)cc(OC)c1CN1CCC(c2nc(COc3ccc4c(c3)C(=O)N(C3CCC(=O)NC3=O)C4=O)co2)CC1 (centres unmarked) [Compound D325]
14,< 10 nM,COc1cc(-c2cn(C)c(=O)c3cnccc23)cc(OC)c1CN1CCC(c2ncc(COc3ccc4c(c3)C(=O)N(C3CCC(=O)NC3=O)C4=O)o2)CC1 (centres unmarked) [Compound D326]
15,< 10 nM,COc1cc(-c2cn(C)c(=O)c3cnccc23)cc(OC)c1CN1CC(N2CCN(c3ccc4c(c3)C(=O)N(C3CCC(=O)NC3=O)C4=O)CC2)C1 (centres unmarked) [Compound D327]
16,< 10 nM,COc1cc(-c2cc(C(F)(F)F)c(=O)n(C)c2)cc(OC)c1CN1CCC(CCN2CCN(c3ccc4c(c3)C(=O)N(C3CCC(=O)NC3=O)C4=O)CC2)CC1 (centres unmarked) [Compound D328]
17,< 10 nM,COc1cc(-c2cc(C)c(=O)n(C)c2)cc(OC)c1CN1CCC(CCN2CCN(c3ccc4c(c3)C(=O)N(C3CCC(=O)NC3=O)C4=O)CC2)CC1 (centres unmarked) [Compound D329]
18,< 10 nM,COc1cc(-c2cc(C)c(=O)n(C)c2)cc(OC)c1CN1CCN(c2ccc3c(c2)C(=O)N(C2CCC(=O)NC2=O)C3=O)CC1 (centres unmarked) [Compound D330]
19,< 10 nM,COc1cc(-c2cc(C)c(=O)n(C)c2)cc(OC)c1CN1CCC2(CC1)CN(c1ccc3c(c1)C(=O)N(C1CCC(=O)NC1=O)C3=O)C2 (centres unmarked) [Compound D331]

row,DC50,SMILES
1,< 10 nM,COc1cc(-c2cc(C)c(=O)n(C)c2)cc(OC)c1CN1CCC2(CC1)CC(Oc1ccc3c(c1)C(=O)N(C1CCC(=O)NC1=O)C3=O)C2 (centres unmarked) [Compound D332]
2,< 10 nM,COc1cc(-c2cc(C)c(=O)n(C)c2)cc(OC)c1CN1CCC(n2cc([C@H](C)Oc3ccc4c(c3)C(=O)N(C3CCC(=O)NC3=O)C4=O)nn2)CC1 (some centres unmarked) [Compound D333]
3,> 1000 nM,COc1cc(-c2cc(C)c(=O)n(C)c2)cc(OC)c1CN1CCC(CCN2CCN(C3CCC(=O)NC3=O)C(=O)C2)CC1 (centres unmarked) [Compound D334]
4,< 10 nM,COc1cc(-c2cc(C)c(=O)n(C)c2)cc(OC)c1CN1CC(C#Cc2ccc3c(c2)C(=O)N(C2CCC(=O)NC2=O)C3=O)C1 (centres unmarked) [Compound D335]
5,< 10 nM,COc1cc(-c2cc(C)c(=O)n(C)c2)cc(OC)c1CN1CCC2(CCN(c3ccc4c(c3)C(=O)N(C3CCC(=O)NC3=O)C4=O)C2)C1 (centres unmarked) [Compound D336]
6,< 10 nM,COc1cc(-c2cc(C)c(=O)n(C)c2)cc(OC)c1CN1CCC2(C1)CN(c1ccc3c(c1)C(=O)N(C1CCC(=O)NC1=O)C3=O)C2 (centres unmarked) [Compound D337]
7,< 10 nM,COc1cc(-c2cc(C)c(=O)n(C)c2)cc(OC)c1CN1CCC2C(C1)CN2c1ccc2c(c1)C(=O)N(C1CCC(=O)NC1=O)C2=O (centres unmarked) [Compound D338]
8,< 10 nM,COc1cc(-c2cc(C)c(=O)n(C)c2)cc(OC)c1CN1CCC2CN(c3ccc4c(c3)C(=O)N(C3CCC(=O)NC3=O)C4=O)C21 (centres unmarked) [Compound D339]
9,< 10 nM,COc1cc(-c2cn(C)c(=O)c3[nH]ccc23)cc(OC)c1CN1CCC2(CC1)CN(c1ccc3c(c1)C(=O)N(C1CCC(=O)NC1=O)C3=O)C2 (centres unmarked) [Compound D340]
10,< 10 nM,COc1cc(-c2cc(C(F)F)c(=O)n(C)c2)cc(OC)c1CN1CCC2(CC1)CN(c1ccc3c(c1)C(=O)N(C1CCC(=O)NC1=O)C3=O)C2 (centres unmarked) [Compound D341]
11,> 1000 nM,COc1cc(-c2cnc(=O)n(C)c2)cc(OC)c1CN1CCN(CCC2CCN(c3ccc4c(c3)C(=O)N(C3CCC(=O)NC3=O)C4=O)CC2)CC1 (centres unmarked) [Compound D342]
12,< 10 nM,COc1cc(-c2cc(C)c(=O)n(C)c2C)cc(OC)c1CN1CCN(c2ccc3c(c2)C(=O)N(C2CCC(=O)NC2=O)C3=O)CC1 (centres unmarked) [Compound D343]
13,< 10 nM,COc1cc(-c2ccc(=O)n(C)c2)cc(OC)c1CN1CCN(c2ccc3c(c2)C(=O)N(C2CCC(=O)NC2=O)C3=O)CC1 (centres unmarked) [Compound D344]
14,< 10 nM,COc1cc(-c2cn(C)c(=O)c(C)c2C)cc(OC)c1CN1CC(CN2CCC3(CC2)CN(c2ccc4c(c2)C(=O)N(C2CCC(=O)NC2=O)C4=O)C3)C1 (centres unmarked) [Compound D345]
15,< 10 nM,COc1cc(-c2cc(C)c(=O)n(C)c2C)cc(OC)c1CN1CC(CN2CCC3(CC2)CN(c2ccc4c(c2)C(=O)N(C2CCC(=O)NC2=O)C4=O)C3)C1 (centres unmarked) [Compound D346]
16,< 10 nM,COc1cc(-c2ccc(=O)n(C)c2)cc(OC)c1CN1CC(CN2CCC3(CC2)CN(c2ccc4c(c2)C(=O)N(C2CCC(=O)NC2=O)C4=O)C3)C1 (centres unmarked) [Compound D347]
17,< 10 nM,C=CCn1cc(-c2cc(OC)c(CN3CC(CN4CCC5(CC4)CN(c4ccc6c(c4)C(=O)N(C4CCC(=O)NC4=O)C6=O)C5)C3)c(OC)c2)cc(C)c1=O (centres unmarked) [Compound D348]
18,< 10 nM,COc1cc(-c2cn(C)c(=O)cc2C)cc(OC)c1CN1CC(CN2CCC3(CC2)CN(c2ccc4c(c2)C(=O)N(C2CCC(=O)NC2=O)C4=O)C3)C1 (centres unmarked) [Compound D349]
19,100 to 1000 nM,CNC(=O)NCc1cc(-c2cc(OC)c(CN3CC(CN4CCC5(CC4)CN(c4ccc6c(c4)C(=O)N(C4CCC(=O)NC4=O)C6=O)C5)C3)c(OC)c2)cn(C)c1=O (centres unmarked) [Compound D350]
